# Assay results: PMC7567097, “A nanoluciferase SARS-CoV-2 for rapid neutralization testing and screening of anti-infective drugs for COVID-19” (Nature Communications, 2020)
# Like-named read-outs stand apart in the source and are kept apart here.
# How the values were obtained:
# SARS-CoV-2-Nluc [1] = assay: microbe, parasite or virus in culture; assay type: cell-based
# SARS-CoV-2-Nluc [2] = assay: microbe, parasite or virus in culture; assay type: cell-based; settings: Severe acute respiratory syndrome coronavirus 2, Vero C1008, 48 h
# in vitro = settings: human; for viability: cell viability (% of DMSO control)
# Vero E6 cells = assay: Cytotoxicity assay (CCK-8, 72 h) in Vero E6 cells; assay type: cell-based, African green monkey; settings: Vero, two replicates
# [3] = Cytotoxicity assay (CCK-8, 72 h) in Vero E6 cells; assay type: cell-based, African green monkey; settings: African green monkey, Vero E6 cells; for viability at 72 h: Vero, two replicates, read-out: cell viability (% of DMSO control)
# COVID-19 = test system: COVID-19; parameters: method as in PMID 32649078; settings: 1063 patients hospitalized with COVID-19; placebo group 15 days; cited from earlier work
compound,measurement,setting,value
CCC(CC)COC(=O)[C@H](C)N[P@](=O)(OC[C@H]1O[C@@](C#N)(c2ccc3c(N)ncnn23)[C@H](O)[C@@H]1O)Oc1ccccc1 [Remdesivir],cell viability (% of DMSO control),A549-hACE2 cells; Concentration 0.00152416,98.72%
same,cell viability (% of DMSO control),A549-hACE2 cells; Concentration 0.00457247,97.64%
same,cell viability (% of DMSO control),A549-hACE2 cells; Concentration 0.0137174,95.55%
same,cell viability (% of DMSO control),A549-hACE2 cells; Concentration 0.0411523,98.85%
same,cell viability (% of DMSO control),A549-hACE2 cells; Concentration 0.123457,98.18%
same,cell viability (% of DMSO control),A549-hACE2 cells; Concentration 0.37037,92.18%
same,cell viability (% of DMSO control),A549-hACE2 cells; Concentration 1.11111,95.21%
same,cell viability (% of DMSO control),A549-hACE2 cells; Concentration 3.33333,90.42%
same,cell viability (% of DMSO control),A549-hACE2 cells; Concentration 10,87.86%
same,CC50,A549-hACE2 cells; human,32.7 ± 5.2 µM
same,EC50,"SARS-CoV-2-Nluc [1]; Severe acute respiratory syndrome coronavirus 2, 48 h",0.115 ± 0.007 µM
same,EC50,"SARS-CoV-2-Nluc [1]; Severe acute respiratory syndrome coronavirus 2, read-out: EC50 (µM) Replicate 1",0.11 µM
same,EC50,"SARS-CoV-2-Nluc [1]; Severe acute respiratory syndrome coronavirus 2, read-out: EC50 (µM) Replicate 2",0.12 µM
same,EC50,SARS-CoV-2-Nluc [2],1.28 µM
same,CC50,in vitro; CC50,32.5 µM
same,CC50,in vitro; CC50 (µM) Replicate 1,29 µM
same,CC50,in vitro; CC50 (µM) Replicate 2,36.4 µM
same,viability,in vitro; Concentration 0.00152416,100%
same,viability,in vitro; Concentration 0.00457247,99.8%
same,viability,in vitro; Concentration 0.0137174,102%
same,viability,in vitro; Concentration 0.0411523,102%
same,viability,in vitro; Concentration 0.123457,101%
same,viability,in vitro; Concentration 0.37037,96.9%
same,viability,in vitro; Concentration 1.11111,100%
same,viability,in vitro; Concentration 3.33333,101%
same,viability,in vitro; Concentration 10,84.9%
same,cell viability (% of DMSO control),Vero E6 cells; Concentration 0.00152416,98.69%
same,cell viability (% of DMSO control),Vero E6 cells; Concentration 0.00457247,100.09%
same,cell viability (% of DMSO control),Vero E6 cells; Concentration 0.0137174,99.13%
same,cell viability (% of DMSO control),Vero E6 cells; Concentration 0.0411523,93.89%
same,cell viability (% of DMSO control),Vero E6 cells; Concentration 0.123457,91.88%
same,cell viability (% of DMSO control),Vero E6 cells; Concentration 0.37037,90.48%
same,cell viability (% of DMSO control),Vero E6 cells; Concentration 1.11111,90.39%
same,cell viability (% of DMSO control),Vero E6 cells; Concentration 3.33333,89.52%
same,cell viability (% of DMSO control),Vero E6 cells; Concentration 10,70.92%
same,viability at 72 h,[3]; Concentration 0.00152416,100%
same,viability at 72 h,[3]; Concentration 0.00457247,102%
same,viability at 72 h,[3]; Concentration 0.0137174,91.3%
same,viability at 72 h,[3]; Concentration 0.0411523,104%
same,viability at 72 h,[3]; Concentration 0.123457,80.3%
same,viability at 72 h,[3]; Concentration 0.37037,80.3%
same,viability at 72 h,[3]; Concentration 1.11111,102%
same,viability at 72 h,[3]; Concentration 3.33333,87.9%
same,viability at 72 h,[3]; Concentration 10,68%
same,CC50 at 72 h,[3]; 3-day cytotoxicity,> 50 µM
same,recovery time,COVID-19,11 days
